22 molecules from patent US12384769B2, “Heteroaryl-substituted aminoalkyl azole compounds as pesticides” (Elanco Animal Health GmbH, priority 2019, dated 2025) can be followed below.

Format in all cases: in vivo
One experiment concerns Diabrotica balteata. Put plainly: Diabrotica balteata spray test. The conditions noted are these: 168 h, wheat seeds, after 7 days, read-out: activity (efficacy, seedlings grown); for pest or weed control at 160 µg/disc, 500 g/ha: 500 g/ha (=160 μg/well). How it is done: Diabrotica balteata—Spray Test
Solvent: 78.0 parts by weight of acetone • • 1.5 parts by weight of dimethylformamide
(§1) Emulsifier: alkylarylpolyglycol ether
To produce a suitable preparation of active compound, 1 part by weight of active compound is mixed with the stated amount of solvent, and the concentrate is diluted with water, containing an emulsifier concentration of 1000 ppm, to the desired concentration. Further test concentrations are prepared by dilution with emulsifier containing water.
Soaked wheat seeds (Triticum aestivum) are placed in a multiple well plate filled with agar and some water and are incubated for 1 day to germinate (5 seeds per well). The germinated wheat seeds are sprayed with a test solution containing the desired concentration of the active ingredient. Afterwards each unit is infected with 10-20 larvae of the banded cucumber beetle (Diabrotica balteata).
After 7 days efficacy in % is determined. 100% means all the seedlings have grown up like in the untreated, uninfected control; 0% means none of the seedlings have grown.

Experiment [1] has as its system Rhipicephalus microplus (strain Parkhurst, resistant against synthetic pyrethroids). Kind of experiment: Rhipicephalus microplus in-vitro contact test, larval cattle tick (BOOPMI Contact). The conditions noted are these: 5 μg/cm^2 (=500 g/ha), after 48 hours, read-out: activity (efficacy, larvae dead or moribund). Here is the method: Rhipicephalus microplus—in-Vitro Contact Tests Larval Cattle Tick (Strain Parkhurst, Resistant Against Synthetic Pyrethroids) (BOOPMI Contact)
9 mg compound is solved in 1 ml acetone and diluted with acetone to the desired concentration. 250 μL of the test solution is filled in 25 ml glass test tubes and homogeneously distributed on the inner walls by rotation and tilting on a shaking device (2 h at 30 rpm). With a compound concentration of 900 ppm, an inner surface of 44.7 cm^2 and a homogeneous distribution, a dose of 5 μg/cm^2 is achieved.
After the solvent has evaporated, each test tube is filled with 20-50 cattle tick larvae (Rhipicephalus microplus), closed with a perforated lid and incubated in a horizontal position at 85% relative humidity and 27° C. in an incubator. After 48 hours efficacy is determined. The larvae are patted on the ground of the tubes and negative geotactic behaviour is recorded.
An efficacy of 100% means all larvae are dead or moribund; 0% means no larvae are dead or moribund.

Another experiment deals with Boophilus microplus. Kind of experiment: Boophilus microplus injection test (BOOPMI Injection). The conditions noted are these: Rhipicephalus microplus, 168 h, injection into adult engorged female ticks, egg deposition after 7 days, read-out: activity (efficacy, infertile eggs); for pest or weed control at 0.004 mg: 4 μg/animal; for pest or weed control at 0.02 mg: 20 μg/animal. How it is done:
Boophilus microplus—Injection Test (BOOPMI Injection)
Solvent: dimethyl sulfoxide
To produce a suitable preparation of active compound, 10 mg of active compound are dissolved in 0.5 mL solvent, and the concentrate is diluted with solvent to the desired concentration.
Five adult engorged female ticks (Boophilus microplus) are injected with 1 μL compound solution into the abdomen. The ticks are transferred into replica plates and incubated in a climate chamber.
After 7 days egg deposition of fertile eggs is monitored. Eggs where fertility is not visible are stored in a climate chamber till hatching after about 42 days. An efficacy of 100% means all eggs are infertile; 0% means all eggs are fertile.

The subject of a further experiment is Spodoptera frugiperda. Put plainly: Spodoptera frugiperda spray test. The conditions noted are these: in Zea mays, 168 h, read-out: activity (mortality). How it is done:
Spodoptera frugiperda—Spray Test
Solvent: 78.0 parts by weight acetone • 1.5 parts by weight dimethylformamide
as §1
To produce a suitable preparation of active compound, 1 part by weight of active compound is mixed with the stated amount of solvents and is diluted with water, containing an emulsifier concentration of 1000 ppm, to the desired concentration. Further test concentrations are prepared by dilution with emulsifier containing water.
Maize (Zea mays) leaf sections are sprayed with a preparation of the active ingredient of the desired concentration. Once dry, the leaf sections are infested with fall armyworm larvae (Spodoptera frugiperda).
After 7 days mortality in % is determined. 100% means all caterpillars have been killed and 0% means none of the caterpillars have been killed.

With `C[C@H](Nc1nc2cc(C(F)(F)F)ccc2o1)c1ncnn1-c1ncccn1` [Example I-003], in the experiment with Diabrotica balteata, the pest or weed control at 160 µg/disc, 500 g/ha amounted to 80%.
As for `C[C@H](Nc1nc2cc(C(F)(F)F)cc(Cl)c2o1)c1ncnn1-c1ccc(Cl)cn1` [Example I-015], in the experiment with Diabrotica balteata, the pest or weed control at 160 µg/disc, 500 g/ha is 100%. The pest or weed control at 5 µg/cm2 in experiment [1] was 100%. For the same molecule, in the experiment with Boophilus microplus, the pest or weed control at 0.004 mg was determined as 80% and the pest or weed control at 0.02 mg is 100%. For the same molecule, the mortality at 500 g/ha in the experiment with Spodoptera frugiperda is 100%.
Consider `C[C@H](Nc1nc2cc(C(F)(F)F)cc(Cl)c2o1)c1ncnn1-c1ccc(C#N)cn1` [Example I-018], for which, in the experiment with Diabrotica balteata, the pest or weed control at 100 g/ha is 100% and the pest or weed control at 160 µg/disc, 500 g/ha was 100%. The pest or weed control at 5 µg/cm2 in experiment [1] turned out to be 80%. Further, in the experiment on Boophilus microplus, the pest or weed control at 0.004 mg was 100% and the pest or weed control at 0.02 mg came out at 100%. Further, in the experiment on Spodoptera frugiperda, the mortality at 100 g/ha came to 100% and the mortality at 500 g/ha amounted to 100%.
For `Cc1nc([C@H](C)Nc2nc3cc(C(F)(F)F)cc(Cl)c3o2)n(-c2ccc(C#N)cn2)n1` [Example I-020], in experiment [1], the pest or weed control at 5 µg/cm2 is 100%.
As to `Cc1nc([C@H](C)Nc2nc3cc(C(F)(F)F)cc(C(F)(F)F)c3o2)n(-c2ccc(C#N)cn2)n1` [Example I-021], in the experiment with Diabrotica balteata, the pest or weed control at 100 g/ha is 100% and the pest or weed control at 160 µg/disc, 500 g/ha was 100%. Moreover, the pest or weed control at 5 µg/cm2 in experiment [1] stood at 80%. Besides, in the experiment with Boophilus microplus, the pest or weed control at 0.004 mg came out at 100% and the pest or weed control at 0.02 mg was 100%.
For the molecule `C[C@H](Nc1nc2cc(C(F)(F)F)cc(Cl)c2o1)c1ncnn1-c1ccc(C(F)(F)F)cn1` [Example I-027], the pest or weed control at 5 µg/cm2 in experiment [1] turned out to be 100%. Moreover, in the experiment with Boophilus microplus, the pest or weed control at 0.004 mg turned out to be 100% and the pest or weed control at 0.02 mg was found to be 100%. In addition, in the experiment on Spodoptera frugiperda, the mortality at 500 g/ha came out at 100%.
Consider `Cc1nc([C@H](C)Nc2nc3cc(C(F)(F)F)cc(C(F)(F)F)c3o2)n(-c2ccc(C(F)(F)F)cn2)n1` [Example I-029], for which, in experiment [1], the pest or weed control at 5 µg/cm2 turned out to be 100%.
Regarding `C[C@H](Nc1nc2cc(C(F)(F)F)cc(C(F)(F)F)c2o1)c1ncnn1-c1ccc(C(F)(F)F)cn1` [Example I-030], in the experiment with Boophilus microplus, the pest or weed control at 0.004 mg amounted to 80% and the pest or weed control at 0.02 mg is 100%.
On to `C[C@H](Nc1nc2cc(C(F)(F)F)cc(C(F)(F)F)c2o1)c1ncnn1-c1ccc(Cl)cn1` [Example I-032], for which the pest or weed control at 0.02 mg in the experiment on Boophilus microplus came to 100%. For the same molecule, the mortality at 500 g/ha in the experiment with Spodoptera frugiperda came to 100%.
As for `Cc1csc(-n2ncnc2[C@H](C)Nc2nc3cc(C(F)(F)F)cc(Cl)c3o2)n1` [Example I-038, 7-chloro-N-{(1S)-1-[1-(4-methyl-1,3-thiazol-2-yl)-1H-1,2,4-triazol-5-yl]ethyl}-5-(trifluoromethyl)-1,3-benzoxazol-2-amine], the pest or weed control at 0.004 mg in the experiment on Boophilus microplus worked out at 80%.
For the molecule `COc1cnc(-n2ncnc2[C@H](C)Nc2nc3cc(C(F)(F)F)cc(Cl)c3o2)nc1` [Example I-043, 7-Chlor-N-{(1S)-1-[1-(5-methoxypyrimidin-2-yl)-1H-1,2,4-triazol-5-yl]ethyl}-5-(trifluormethyl)-1,3-benzoxazol-2-amin], in the experiment with Spodoptera frugiperda, the mortality at 100 g/ha was determined as 100%.
As to `COc1ccnc(-n2ncnc2[C@H](C)Nc2nc3cc(C(F)(F)F)cc(Cl)c3o2)n1` [Example I-051, 7-Chlor-N-{(1S)-1-[1-(4-methoxypyrimidin-2-yl)-1H-1,2,4-triazol-5-yl]ethyl}-5-(trifluormethyl)-1,3-benzoxaozl-2-amin], in experiment [1], the pest or weed control at 5 µg/cm2 came to 80%. In the experiment on Boophilus microplus, the pest or weed control at 0.02 mg came to 100%.
For `C[C@H](Nc1nc2cc(C(F)(F)F)cc(Br)c2o1)c1ncnn1-c1ccc(Cl)cn1` [Example I-054, 7-Brom-N-{(1S)-1-[1-(5-chlorpyridin-2-yl)-1H-1,2,4-triazol-5-yl]ethyl}-5-(trifluormethyl)-1,3-benzoxazol-2-amin], the pest or weed control at 5 µg/cm2 in experiment [1] worked out at 100%. Moreover, the pest or weed control at 0.02 mg with Boophilus microplus worked out at 100%. Further, in the experiment on Spodoptera frugiperda, the mortality at 500 g/ha was 100%.
Regarding `CC(C)c1cc(Cl)c2oc(N[C@@H](C)c3ncnn3-c3ncccn3)nc2c1` [Example I-063, 7-Chlor-5-isopropyl-N-{(1S)-1-[1-(pyrimidin-2-yl)-1H-1,2,4-triazol-5-yl]ethyl}-1,3-benzoxazol-2-amin], in the experiment on Diabrotica balteata, the pest or weed control at 100 g/ha came out at 100% and the pest or weed control at 160 µg/disc, 500 g/ha came out at 80%. In the experiment with Boophilus microplus, the pest or weed control at 0.004 mg was found to be 80% and the pest or weed control at 0.02 mg came out at 100%.
Consider `CC(C)c1cc(Cl)c2oc(N[C@@H](C)c3ncnn3-c3cc(C#N)ccn3)nc2c1` [Example I-064, 2-(5-{(1S)-1-[(7-Chlor-5-isopropyl-1,3-benzoxazol-2-yl)amino]ethyl}-1H-1,2,4-triazol-1-yl)isonicotinonitril], for which, in the experiment with Diabrotica balteata, the pest or weed control at 100 g/ha worked out at 100% and the pest or weed control at 160 µg/disc, 500 g/ha came out at 100%. The pest or weed control at 0.02 mg with Boophilus microplus amounted to 80%.
`CC(C)c1cc(Cl)c2oc(N[C@@H](C)c3ncnn3-c3ncc(Br)cn3)nc2c1` [Example I-068, N-{(1S)-1-[1-(5-Brompyrimidin-2-yl)-1H-1,2,4-triazol-5-yl]ethyl}-7-chlor-5-isopropyl-1,3-benzoxazol-2-amin]: in experiment [1], the pest or weed control at 5 µg/cm2 was found to be 80%. In the experiment on Boophilus microplus, the pest or weed control at 0.004 mg amounted to 100% and the pest or weed control at 0.02 mg amounted to 100%.
For the molecule `C[C@H](Nc1nc2cc(C(C)(C)C)cc(Cl)c2o1)c1ncnn1-c1ccc(C#N)cn1` [Example I-077, 6-(5-[(1S)-1-[(5-tert-Butyl-7-chlor-1,3-benzoxazol-2-yl)amino]ethyl}-1H-1,2,4-triazol-1-yl)nicotinonitril], in the experiment with Boophilus microplus, the pest or weed control at 0.004 mg is 100% and the pest or weed control at 0.02 mg was found to be 100%.
In the case of `C[C@H](Nc1nc2cc(S(=O)(=O)c3ccccc3)cc(Cl)c2o1)c1ncnn1-c1ncccn1` [Example I-080, 7-Chlor-5-(phenylsulfonyl)-N-{(1S)-1-[1-(pyrimidin-2-yl)-1H-1,2,4-triazol-5-yl]ethyl}-1,3-benzoxazol-2-amin], in experiment [1], the pest or weed control at 5 µg/cm2 worked out at 100%.
As for `Cc1nc([C@H](C)Nc2nc3cc(Cl)cc(C(F)(F)F)c3o2)n(-c2ncccn2)n1` [Example I-089, 5-Chlor-N-{(1S)-1-[3-methyl-1-(pyrimidin-2-yl)-1H-1,2,4-triazol-5-yl]ethyl}-7-(trifluormethyl)-1,3-benzoxazol-2-amin], in the experiment on Boophilus microplus, the pest or weed control at 0.004 mg is 100% and the pest or weed control at 0.02 mg is 100%.
Consider `COc1nc([C@H](C)Nc2nc3cc(C(F)(F)F)c(Cl)cc3o2)n(-c2ccc(C#N)cn2)n1` [Example I-101, 6-{5-[(1S)-1-{[6-chloro-5-(trifluoromethyl)-1,3-benzoxazol-2-yl]amino}ethyl]-3-methoxy-1H-1,2,4-triazol-1-yl}pyridine-3-carbonitrile], for which the pest or weed control at 100 g/ha in the experiment on Diabrotica balteata was 100%.
For `CCN(CC)C(=O)c1ccc(-n2ncnc2[C@H](C)Nc2nc3cc(C(F)(F)F)c(Cl)cc3o2)nc1` [Example I-102, 6-{5-[(1S)-1-{[6-chloro-5-(trifluoromethyl)-1,3-benzoxazol-2-yl]amino}ethyl]-1H-1,2,4-triazol-1-yl}-N,N-diethylpyridine-3-carboxamide], the pest or weed control at 100 g/ha with Diabrotica balteata was 100%. Also, the mortality at 100 g/ha with Spodoptera frugiperda was 100%.
Regarding `C[C@H](Nc1nc2cc(C(F)(F)F)c(Cl)cc2o1)c1ncnn1-c1ccc(C(=O)N2CCCC2)cn1` [Example I-103, (6-{5-[(1S)-1-{[6-chloro-5-(trifluroomethyl)-1,3-benzoxazol-2-yl]amino}ethyl]-1H-1,2,4-triazol-1-yl}pyridin-3-yl)(pyrrolidin-1-yl)methanone], the pest or weed control at 100 g/ha with Diabrotica balteata amounted to 100%.
